Assay results from ChEMBL document CHEMBL1142805, “Study on supramolecular complexing ability vis-à-vis estimation of pKa of substituted sulfonamides: dominating role of Balaban index (J)” (Bioorg Med Chem Lett, 2005).

Test: Protonation constant (Proton-ligand formation constant) was determined
Assay type: ADME

SMILES: O=[N+]([O-])c1ccc(S(=O)(=O)Nc2ccccc2)cc1
- pKa: 6.66
